# Literature values, collected in US20050215521A1, “Modafinil combination therapy for improving sleep quality” (priority 2003, published 2005).
# Counter-ions that a name gives are not always drawn.
# What was measured:
# mice = conditions: reference agents, scores below 40 of 60 denote behavioral depression
# GABA uptake system = conditions: at concentrations of 5×10^4 M
# [1] = biological target: GABA:2-oxo-glutarate aminotransferase (Homo sapiens, UniProt P80404); conditions: at concentrations of 10^−3 M
# [2] = test system: L-glutamate 1-carboxylase; conditions: at concentrations of 10^−3 M
# [3] = oral
# [4] = in vivo
# Chain of GABA:2-oxo-glutarate aminotransferase (P80404 29-500): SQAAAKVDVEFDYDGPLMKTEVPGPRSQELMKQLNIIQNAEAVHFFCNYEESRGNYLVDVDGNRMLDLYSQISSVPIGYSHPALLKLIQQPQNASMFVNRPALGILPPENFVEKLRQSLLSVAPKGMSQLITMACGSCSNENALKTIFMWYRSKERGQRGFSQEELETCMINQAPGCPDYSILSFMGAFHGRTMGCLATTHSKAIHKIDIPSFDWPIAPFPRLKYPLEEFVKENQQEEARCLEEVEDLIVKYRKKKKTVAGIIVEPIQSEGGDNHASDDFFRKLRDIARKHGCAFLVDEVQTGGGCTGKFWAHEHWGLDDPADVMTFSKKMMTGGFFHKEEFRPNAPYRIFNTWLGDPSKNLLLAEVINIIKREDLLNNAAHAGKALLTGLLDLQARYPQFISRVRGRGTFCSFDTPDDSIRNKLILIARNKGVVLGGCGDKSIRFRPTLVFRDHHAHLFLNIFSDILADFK
compound,measurement,setting,value
"NC(=O)C[S+]([O-])C(c1ccccc1)c1ccccc1 (stereo not shown) [Modafinil, 2-[(Diphenylmethyl)sulfinyl]-N-acetamide]",solubility in acetone,acetone,sparingly or slightly soluble
same,solubility in cyclohexane,cyclohexane,insoluble
same,solubility in methanol,,sparingly or slightly soluble
same,solubility in water,,insoluble
"CP(=O)(O)CCCN [SKF 97541, 3-aminopropyl(methyl)phosphinic acid]",solubility in dilute aqueous base,dilute aqueous base,readily soluble
same,solubility in water,,readily soluble
"CN1C(=O)CN=C(c2ccccc2)c2cc(Cl)ccc21 [diazepam, 7-chloro-1,3-dihydro-1-methyl-5-phenyl-2H-1,4-benzodiazepin-2-one]",ED100,mice,50 mg/kg
"Oc1noc2c1CCNC2 [gaboxadol, 4,5,6,7-tetrahydroisoxazolo[5,4-c]pyridin-3-ol]",interaction with the GABA uptake system,GABA uptake system,did not interact
same,interaction with GABA:2-oxo-glutarate aminotransferase,[1],did not interact
same,interaction with L-glutamate 1-carboxylase,[2],did not interact
CCC1(c2ccccc2)CCC(=O)NC1=O (stereo not shown) [glutethimide],ED100,mice,300 mg/kg
O=C(CCCN1CCC(O)(c2ccc(Cl)cc2)CC1)c1ccc(F)cc1 [haloperidol],ED100,mice,10 mg/kg
CCCC(C)(COC(N)=O)COC(N)=O [meprobamate],ED100,mice,300 mg/kg
CCCC(C)C1(CC)C(=O)NC(=O)NC1=O (stereo not shown) [pentobarbital],ED100,mice,100 mg/kg
COC(=O)[C@H]1[C@H]2C[C@@H]3c4[nH]c5cc(OC)ccc5c4CCN3C[C@H]2C[C@@H](OC(=O)c2cc(OC)c(OC)c(OC)c2)[C@@H]1OC [reserpine],ED100,mice,50 mg/kg
Cc1ccc(-c2nc3ccc(C)cn3c2CC(=O)N(C)C)cc1 [zolpidem tartrate],solubility in methanol,,sparingly soluble
same,solubility in methylene chloride,methylene chloride,practically insoluble
same,solubility in water,,slightly soluble
"Cc1ccc(-c2nc3ccc(C)cn3c2CC(=O)N(C)C)cc1 [zolpidem, N,N,6-trimethyl-2-(4-methylphenyl)-imidazo[1,2-s]pyridine-3-acetamide]",elimination half-life (mean),[3],2.4 h
same,duration of action,[3]; hypnotic action,up to 6 hours
zopiclone,absorption from the stomach,[4],well absorbed
same,binding to plasma proteins,plasma proteins,not highly bound
